In patent US6153589A, “2,3-epoxy alcohols, acids and derivatives as anti retroviral chemotherapeutic agents” (The United States of America as represented by the …, priority 1992, dated 2000):
Like-named read-outs stand apart in the source and are kept apart here.

Tested on: HIV1 IIIb
Assay: microbe, parasite or virus in culture
Assay type: cell-based
Conditions: Human immunodeficiency virus 1, IIIB; for viability at 10 µg/mL: 10 ug/ml; for viability at 0.1 µg/mL: 0.1 ug/ml; for viability at 1 µg/mL: 1 ug/ml; for viability at 100 µg/mL: 100 ug/ml; for viability at 4.07 µg/mL: 4.07 ug/ml; for viability at 34.6 µg/mL: 34.6 ug/ml; for viability at 29 µg/mL: 29 ug/ml; for viability at 24.8 µg/mL: 24.8 ug/ml; for viability at 4.7 µg/mL: 4.7 ug/ml, virus kill 22.0%
Source text: In-vitro Screening Anti--HIV XTT Assay
This assay, which is available to the public by the National Cancer Institute, utilizes colorimetry based on the production of a colored formazin from a tetrazolium salt by viable cells, to develop a safe, rapid and quantitative measure of HIV cytopathology. The assay is a modification of the previously described screening method for the detection of anti-tumor drug cytotoxicity (D. A. Scudiero, et al, Cancer Res, 48, 4827-4833 (1988)). It involves the plating of susceptible human "host" cells with and without virus in microculture plates, adding various concentrations of the respective test compounds, incubating the plates for seven days, during which time infected, non-drug treated control cells are largely or totally destroyed by the virus. The number of remaining viable cells are determined utilizing a calorimetric endpoint. A beneficial antiviral effect is indicated by a response % grater than the virus kill %, with 100% being optimal.
Anti-viral effect: Response (Viable Cells, determined by colorometric
absorbance of formazan dye produced) as % of uninfected controls
Virus Source: HIV1 IIIb; C, Virus producing H9 cells; V, cell free virus
Virus Kill: Infected untreated cells as % of uninfected cell controls
*: Culture redosed with compound after 3 days

[1] = H9, 168 h, read-out: Antiviral Effect (viable cells as % of uninfected controls), run 1, source C (virus producing H9 cells), virus kill 21.0%

Q: With `CCCCCCCCCCC[C@@H]1O[C@@H]1C(=O)O` (relative stereo) [Example 19, (2S*-cis)-3-Undecyloxiranecarboxylic Acid] as the compound, how does the viability at 10 µg/mL (168 h, read-out: Antiviral Effect (viable cells as % of uninfected controls), run 4, source V (cell free virus), virus kill 57.0%) read?
A: 63.9%

Q: And the viability at 10 µg/mL (168 h, read-out: Antiviral Effect (viable cells as % of uninfected controls), run 5, source V (cell free virus), virus kill 26.0%)?
A: 38.8%

Q: What about the viability at 0.1 µg/mL (168 h, read-out: Antiviral Effect (viable cells as % of uninfected controls), run 6, source V (cell free virus), virus kill 19.0%) of the same compound?
A: 27.6%

Q: What about the viability at 1 µg/mL (168 h, read-out: Antiviral Effect (viable cells as % of uninfected controls), run 7*, source V (cell free virus), virus kill 25.0%, culture redosed with compound after 3 days) of the same compound?
A: 12.5%

Q: And the viability at 1 µg/mL [1]?
A: 22.6%

Q: And the viability at 10 µg/mL (H9, 168 h, read-out: Antiviral Effect (viable cells as % of uninfected controls), run 2, source C (virus producing H9 cells), virus kill 15.0%)?
A: 55.7%

Q: What about the viability at 1 µg/mL (H9, 168 h, read-out: Antiviral Effect (viable cells as % of uninfected controls), run 3, source C (virus producing H9 cells), virus kill 13.0%) of the same compound?
A: 11.6%

Q: How did the viability at 100 µg/mL (168 h, read-out: Antiviral Effect (viable cells as % of uninfected controls), run 6, source V (cell free virus), virus kill 55.0%) turn out when `CCCCCCCCCCC[C@H]1O[C@@H]1C(=O)O` (relative stereo) [Example 20, (2S*-trans)-3-Undecyloxiranecarboxylic Acid] was run?
A: 75.7%

Q: And the viability at 100 µg/mL (168 h, read-out: Antiviral Effect (viable cells as % of uninfected controls), run 7, source V (cell free virus), virus kill 55.0%)?
A: 84.3%

Q: And the viability at 100 µg/mL (168 h, read-out: Antiviral Effect (viable cells as % of uninfected controls), run 8, source V (cell free virus), virus kill 24.0%)?
A: 40.2%

Q: And the viability at 100 µg/mL (168 h, read-out: Antiviral Effect (viable cells as % of uninfected controls), run 9, source V (cell free virus), virus kill 24.0%)?
A: 72.5%

Q: What about the viability at 4.07 µg/mL (168 h, read-out: Antiviral Effect (viable cells as % of uninfected controls), run 10, source V (cell free virus), virus kill 25.0%) of the same compound?
A: 45.5%

Q: And the viability at 4.07 µg/mL (168 h, read-out: Antiviral Effect (viable cells as % of uninfected controls), run 11*, source V (cell free virus), virus kill 23.0%, culture redosed with compound after 3 days)?
A: 87.4%

Q: What about the viability at 10 µg/mL (H9, 168 h, read-out: Antiviral Effect (viable cells as % of uninfected controls), run 1, source C (virus producing H9 cells), virus kill 18.0%) of the same compound?
A: 22.6%

Q: And the viability at 10 µg/mL (H9, 168 h, read-out: Antiviral Effect (viable cells as % of uninfected controls), run 2, source C (virus producing H9 cells), virus kill 14.0%)?
A: 59.5%

Q: And the viability at 100 µg/mL (H9, 168 h, read-out: Antiviral Effect (viable cells as % of uninfected controls), run 3, source C (virus producing H9 cells), virus kill 14.0%)?
A: 60.9%

Q: And the viability at 100 µg/mL (H9, 168 h, read-out: Antiviral Effect (viable cells as % of uninfected controls), run 4, source C (virus producing H9 cells), virus kill 10.0%)?
A: 10%

Q: What about the viability at 100 µg/mL (H9, 168 h, read-out: Antiviral Effect (viable cells as % of uninfected controls), run 5, source C (virus producing H9 cells), virus kill 10.0%) of the same compound?
A: 10.2%

Q: Which results are given for `CCCCCCCCC[C@@H]1O[C@@H]1C(=O)O` [Example 22, (2-S-cis)-3-Nonyloxiranecarboxylic Acid]?
A: viability at 34.6 µg/mL (168 h, read-out: Antiviral Effect (viable cells as % of uninfected controls), run 8, source V (cell free virus), virus kill 54.0%): 85.5%; viability at 29 µg/mL (168 h, read-out: Antiviral Effect (viable cells as % of uninfected controls), run 9, source V (cell free virus), virus kill 55.0%): 68.5%; viability at 34.6 µg/mL (168 h, read-out: Antiviral Effect (viable cells as % of uninfected controls), run 10, source V (cell free virus), virus kill 26.0%): 40.3%; viability at 29 µg/mL (168 h, read-out: Antiviral Effect (viable cells as % of uninfected controls), run 11, source V (cell free virus), virus kill 33.0%): 41.9%; viability at 24.8 µg/mL (168 h, read-out: Antiviral Effect (viable cells as % of uninfected controls), run 12, source V (cell free virus), virus kill 30.0%): 23.1%; viability at 24.8 µg/mL (168 h, read-out: Antiviral Effect (viable cells as % of uninfected controls), run 13*, source V (cell free virus), virus kill 20.0%, culture redosed with compound after 3 days): 26.6%; viability at 10 µg/mL [1]: 50.1%; viability at 0.1 µg/mL (H9, 168 h, read-out: Antiviral Effect (viable cells as % of uninfected controls), run 2, source C (virus producing H9 cells), virus kill 20.0%): 25.6%; viability at 0.1 µg/mL (H9, 168 h, read-out: Antiviral Effect (viable cells as % of uninfected controls), run 3, source C (virus producing H9 cells), virus kill 8.0%): 9.5%; viability at 34.6 µg/mL (H9, 168 h, read-out: Antiviral Effect (viable cells as % of uninfected controls), run 4, source C (virus producing H9 cells), virus kill 16.0%): 25.9%; viability at 29 µg/mL (H9, 168 h, read-out: Antiviral Effect (viable cells as % of uninfected controls), run 5, source C (virus producing H9 cells), virus kill 13.0%): 18.5%; viability at 34.6 µg/mL (H9, 168 h, read-out: Antiviral Effect (viable cells as % of uninfected controls), run 6, source C (virus producing H9 cells), virus kill 14.0%): 12.8%; viability at 2.9 µg/mL (H9, 168 h, read-out: Antiviral Effect (viable cells as % of uninfected controls), run 7, 2.9 ug/ml, source C (virus producing H9 cells), virus kill 16.0%): 11.5%

Q: How did the viability at 10 µg/mL (168 h, read-out: Antiviral Effect (viable cells as % of uninfected controls), run 4, source V (cell free virus), virus kill 55.0%) turn out when `COC(=O)[C@@H]1O[C@@H]1COCc1ccccc1` [Example 25, Methyl (2R-cis)-3-(benzyloxymethyl)oxirane Carboxylate] was run?
A: 46.5%

Q: What about the viability at 1 µg/mL (168 h, read-out: Antiviral Effect (viable cells as % of uninfected controls), run 5, source V (cell free virus), virus kill 27.0%) of the same compound?
A: 49%

Q: What about the viability at 4.7 µg/mL (168 h, read-out: Antiviral Effect (viable cells as % of uninfected controls), run 6, source V (cell free virus)) of the same compound?
A: 25.6%

Q: What about the viability at 4.7 µg/mL (168 h, read-out: Antiviral Effect (viable cells as % of uninfected controls), run 7*, source V (cell free virus), culture redosed with compound after 3 days) of the same compound?
A: 28.5%

Q: And the viability at 100 µg/mL (H9, 168 h, read-out: Antiviral Effect (viable cells as % of uninfected controls), run 1, source C (virus producing H9 cells), virus kill 20.0%)?
A: 28.6%

Q: And the viability at 100 µg/mL (H9, 168 h, read-out: Antiviral Effect (viable cells as % of uninfected controls), run 2, source C (virus producing H9 cells), virus kill 13.0%)?
A: 19.5%

Q: What about the viability at 10 µg/mL (H9, 168 h, read-out: Antiviral Effect (viable cells as % of uninfected controls), run 3, source C (virus producing H9 cells), virus kill 11.0%) of the same compound?
A: 12.3%

Q: `COC(=O)[C@H]1O[C@H]1COCc1ccccc1` [Example 26, Methyl(2S-cis)-3-(benzyloxymethyl)oxirane carboxylate] was tested. Which viability at 10 µg/mL (168 h, read-out: Antiviral Effect (viable cells as % of uninfected controls), run 6, source V (cell free virus), virus kill 54.0%) did it give?
A: 58.7%

Q: And the viability at 100 µg/mL (168 h, read-out: Antiviral Effect (viable cells as % of uninfected controls), run 7, source V (cell free virus), virus kill 54.0%)?
A: 81.3%

Q: And the viability at 1 µg/mL (168 h, read-out: Antiviral Effect (viable cells as % of uninfected controls), run 8, source V (cell free virus), virus kill 23.0%)?
A: 19.8%

Q: What about the viability at 100 µg/mL (168 h, read-out: Antiviral Effect (viable cells as % of uninfected controls), run 9, source V (cell free virus), virus kill 23.0%) of the same compound?
A: 23.7%

Q: And the viability at 487 µg/mL (168 h, read-out: Antiviral Effect (viable cells as % of uninfected controls), run 10, 487 ug/ml, source V (cell free virus), virus kill 30.0%)?
A: 28.1%

Q: And the viability at 0.487 µg/mL (168 h, read-out: Antiviral Effect (viable cells as % of uninfected controls), run 11*, 0.487 ug/ml, source V (cell free virus), virus kill 25.0%, culture redosed with compound after 3 days)?
A: 26.6%

Q: What about the viability at 10 µg/mL (H9, 168 h, read-out: Antiviral Effect (viable cells as % of uninfected controls), run 1, source C (virus producing H9 cells), virus kill 17.0%) of the same compound?
A: 20.8%

Q: And the viability at 10 µg/mL (H9, 168 h, read-out: Antiviral Effect (viable cells as % of uninfected controls), run 2, source C (virus producing H9 cells), virus kill 13.2%)?
A: 39.4%

Q: And the viability at 100 µg/mL (H9, 168 h, read-out: Antiviral Effect (viable cells as % of uninfected controls), run 3, source C (virus producing H9 cells), virus kill 13.2%)?
A: 54%

Q: And the viability at 10 µg/mL (H9, 168 h, read-out: Antiviral Effect (viable cells as % of uninfected controls), run 4, source C (virus producing H9 cells), virus kill 12.0%)?
A: 13.8%

Q: What about the viability at 100 µg/mL (H9, 168 h, read-out: Antiviral Effect (viable cells as % of uninfected controls), run 5, source C (virus producing H9 cells), virus kill 12.0%) of the same compound?
A: 16.3%
